Results published in paper PMC9977638 (Medicinal Chemistry Research, 2023).

Biological target: T1, human recombinant COX-2 (Homo sapiens, UniProt P35354)
T1 sequence (P35354 18-604): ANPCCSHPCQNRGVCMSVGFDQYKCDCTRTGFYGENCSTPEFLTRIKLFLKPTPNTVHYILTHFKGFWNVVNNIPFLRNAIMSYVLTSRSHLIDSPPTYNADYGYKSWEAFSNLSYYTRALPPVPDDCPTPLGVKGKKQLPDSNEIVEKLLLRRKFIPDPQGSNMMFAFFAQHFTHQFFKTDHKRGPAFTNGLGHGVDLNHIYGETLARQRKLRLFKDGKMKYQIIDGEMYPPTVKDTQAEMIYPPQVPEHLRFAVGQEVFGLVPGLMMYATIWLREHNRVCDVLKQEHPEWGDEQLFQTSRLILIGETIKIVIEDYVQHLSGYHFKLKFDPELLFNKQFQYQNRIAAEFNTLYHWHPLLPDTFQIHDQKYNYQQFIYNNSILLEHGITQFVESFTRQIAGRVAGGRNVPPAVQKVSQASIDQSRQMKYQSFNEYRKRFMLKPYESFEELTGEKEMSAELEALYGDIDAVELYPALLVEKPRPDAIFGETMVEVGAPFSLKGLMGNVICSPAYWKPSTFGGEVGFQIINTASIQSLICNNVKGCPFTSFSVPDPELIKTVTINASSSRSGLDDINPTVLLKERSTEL
Assay type: biochemical
Settings: COX-1 IC50/COX-2 IC50

## Cc1ccc(Nc2c(-c3ccc(S(C)(=O)=O)cc3)nc3c(C)cccn23)cc1 [Compound 5n, 8-Methyl-2-(4-(methylsulfonyl)phenyl)-N-(p-tolyl)imidazo[1,2-a]pyridin-3-amine]
  Selectivity index (S.I.): 508
